From patent US11535643B2, “Macrolides with modified desosamine sugars and uses thereof” (President and Fellows of Harvard College, priority 2015, dated 2022)
≈ marks a conversion by molar mass, not a printed value.

Experiments:
Type in all cases: cell-based
[1] = test system: A. baumannii; test: Broth dilution MIC determination (CLSI) against A. baumannii strains
Excerpt: (§1) Minimum inhibitory concentrations (MICs) for macrolides described herein have been determined for unique strains of S. aureus, S. pneumoniae, S. pyogenes, E. faecalis, E. coli, A. baumannii, K. pneumoniae, P. aeruginosa, and H. influenzae, including several multidrug-resistant strains, with a special focus on macrolide resistant mechanisms. Azithromycin and solithromycin were included as control compounds. CLSI standard procedures for broth dilution MIC determination were used. Data for exemplary compounds described herein is shown in Tables M1-M7 and in Tables N1-N4.

[2] = test system: E. coli; test: Broth dilution MIC determination (CLSI) against E. coli strains
Excerpt: as §1

[3] = test system: P. aeruginosa; test: Broth dilution MIC determination (CLSI) against P. aeruginosa strains
Excerpt: as §1

[4] = test system: K. pneumoniae; test: Broth dilution MIC determination (CLSI) against K. pneumoniae strains
Excerpt: as §1, with “used.” for “used. Data for exemplary compounds described herein is shown in Tables M1-M7 and in Tables N1-N4.”

[5] = test system: S. aureus; test: Broth dilution MIC determination (CLSI) against S. aureus strains
Excerpt: as §1

[6] = A. baumannii ATCC 19606, strain MP-15 (Table N4)
[7] = A. baumannii Clinical-AZT low, strain MP-577 (Table N4)
[8] = A. baumannii Clinical-MDR, strain MP-576 (Table N4)
[9] = E. coli ATCC25922, strain MP-4 (Table N4)
[10] = E. coli Clinical, strain MP-541 (Table N4)
[11] = E. coli clinical-cErmB, strain MP-532 (Table N4)
[12] = E. coli tolC, strain MP-9 (Table N4)
[13] = P. aeruginosa ATCC27853, strain MP-3 (Table N4)
[14] = P. aeruginosa PAO1, strain MP-7 (Table N4)
[15] = P. aeruginosa mex-oprM-deletion, strain MP-8 (Table N4)
[16] = K. pneumoniae ATCC 10031, strain MP-14 (Table N4)
[17] = K. pneumoniae Clinical, strain MP-548 (Table N4)
[18] = K. pneumoniae Clinical-MDR, strain MP-546 (Table N4)
[19] = S. aureus ATCC29213, strain MP-12 (Table N4)
[20] = S. aureus BAA 977 iErm, strain MP-17 (Table N4)
[21] = S. aureus Clinical-cErm, strain MP-513 (Table N4)
[22] = S. aureus USA300-msr(a), strain MP-549 (Table N4)

CCC1OC(=O)C(C)C(=O)C(C)C(OC2OC(C)CC(N(C)CCO)C2O)C(C)(OC)CC(C)CNC(C)C2N(CCCCn3cc(-c4cccc(N)c4)nn3)C(=O)OC12C (centres unmarked) [FSM-120418] showed an MIC [1, 6] of 16 µg/mL (≈ 18.6 µM), an MIC [1, 7] of 32 µg/mL (≈ 37.3 µM) and an MIC [1, 8] of over 64 µg/mL. For the same compound, the MIC [2, 9] was 8 µg/mL (≈ 9.32 µM), the MIC [2, 10] was 8 µg/mL (≈ 9.32 µM) and the MIC [2, 11] was over 64 µg/mL. The MIC [2, 12] was 1 µg/mL (≈ 1.17 µM), the MIC [3, 13] was over 64 µg/mL and the MIC [3, 14] was over 64 µg/mL. It also gave an MIC [3, 15] of 32 µg/mL (≈ 37.3 µM), an MIC [4, 16] of 8 µg/mL (≈ 9.32 µM) and an MIC [4, 17] of 64 µg/mL (≈ 74.6 µM). It also gave an MIC [4, 18] of over 64 µg/mL, an MIC [5, 19] of 16 µg/mL (≈ 18.6 µM) and an MIC [5, 20] of 16 µg/mL (≈ 18.6 µM). For the same compound, the MIC [5, 21] was over 64 µg/mL and the MIC [5, 22] was 16 µg/mL (≈ 18.6 µM).
CCC1OC(=O)C(C)C(=O)C(C)C(OC2OC(C)CC(N(C)CCO)C2O)C(C)(OC)CC(C)CN(C)C(C)C2N(CCCCn3cc(-c4cccc(N)c4)nn3)C(=O)OC12C (centres unmarked) [FSM-120419] was tested, and the MIC [1, 6] was over 64 µg/mL, the MIC [1, 7] was over 64 µg/mL and the MIC [1, 8] was over 64 µg/mL. The MIC [2, 9] was over 64 µg/mL, the MIC [2, 10] was over 64 µg/mL and the MIC [2, 11] was over 64 µg/mL. The MIC [2, 12] was 4 µg/mL (≈ 4.59 µM), the MIC [3, 13] was over 64 µg/mL and the MIC [3, 14] was over 64 µg/mL. The MIC [3, 15] was over 64 µg/mL, the MIC [4, 16] was 16 µg/mL (≈ 18.3 µM) and the MIC [4, 17] was over 64 µg/mL. It also gave an MIC [4, 18] of over 64 µg/mL, an MIC [5, 19] of 32 µg/mL (≈ 36.7 µM) and an MIC [5, 20] of 32 µg/mL (≈ 36.7 µM). It also gave an MIC [5, 21] of over 64 µg/mL and an MIC [5, 22] of 32 µg/mL (≈ 36.7 µM).
CCC1OC(=O)C(C)C(=O)C(C)C(OC2OC(C)CC(N(C)CCCS(C)(=O)=O)C2O)C(C)(OC)CC(C)CNC(C)C2N(CCCCn3cc(-c4cccc(N)c4)nn3)C(=O)OC12C (centres unmarked) [FSM-120420] gave an MIC [1, 6] of 32 µg/mL (≈ 34.3 µM), an MIC [1, 7] of 64 µg/mL (≈ 68.5 µM) and an MIC [1, 8] of over 64 µg/mL. It also gave an MIC [2, 9] of 64 µg/mL (≈ 68.5 µM), an MIC [2, 10] of 32 µg/mL (≈ 34.3 µM) and an MIC [2, 11] of over 64 µg/mL. For the same compound, the MIC [2, 12] was 2 µg/mL (≈ 2.14 µM), the MIC [3, 13] was over 64 µg/mL and the MIC [3, 14] was over 64 µg/mL. For the same compound, the MIC [3, 15] was 64 µg/mL (≈ 68.5 µM), the MIC [4, 16] was 16 µg/mL (≈ 17.1 µM) and the MIC [4, 17] was over 64 µg/mL. The MIC [4, 18] was over 64 µg/mL, the MIC [5, 19] was 32 µg/mL (≈ 34.3 µM) and the MIC [5, 20] was 32 µg/mL (≈ 34.3 µM). It also gave an MIC [5, 21] of over 64 µg/mL and an MIC [5, 22] of 64 µg/mL (≈ 68.5 µM).
CCC1OC(=O)C(C)C(=O)C(C)C(OC2OC(C)CC(N(C)CCCS(C)(=O)=O)C2O)C(C)(OC)CC(C)CN(C)C(C)C2N(CCCCn3cc(-c4cccc(N)c4)nn3)C(=O)OC12C (centres unmarked) [FSM-120421] gave an MIC [1, 6] of over 64 µg/mL, an MIC [1, 7] of over 64 µg/mL and an MIC [1, 8] of over 64 µg/mL. For the same compound, the MIC [2, 9] was over 64 µg/mL, the MIC [2, 10] was over 64 µg/mL and the MIC [2, 11] was over 64 µg/mL. For the same compound, the MIC [2, 12] was 64 µg/mL (≈ 67.5 µM), the MIC [3, 13] was over 64 µg/mL and the MIC [3, 14] was over 64 µg/mL. The MIC [3, 15] was over 64 µg/mL, the MIC [4, 16] was 64 µg/mL (≈ 67.5 µM) and the MIC [4, 17] was over 64 µg/mL. For the same compound, the MIC [4, 18] was over 64 µg/mL, the MIC [5, 19] was over 64 µg/mL and the MIC [5, 20] was over 64 µg/mL. The MIC [5, 21] was over 64 µg/mL and the MIC [5, 22] was over 64 µg/mL.
